Measurements reported in patent US9440988B2, “Regulators of the hedgehog pathway, compositions and uses related thereto” (John Hopkins University School of Medicine, priority 1008, dated 2016).
Blank lines part the entries; values can stand above or below the compound they belong to.

Tested on: Sonic hedgehog signaling
Assay: Clonal NIH-3T3 line with stably integrated Shh-responsive luciferase reporter (Shh-LIGHT/Shh-LIGHT2), inhibition of Sonic hedgehog induction
Type: cell-based, mouse
Conditions: for improvement of inhibitory activity by oxidation of the hydroxyl group to a ketone: versus the corresponding 3-hydroxyl compound (18, 20, 22, 33, 40, 50); for effect of N-alkyl modification on ability to block Shh signaling / effect of addition on inhibitory activity: SAR statement, relative to cyclopamine
Text: FIG. 2 relates to a sensitive assay for Shh signaling in NIH-3T3 cells. (A) Purification of cholesterol- and palmitate-modified mouse Sonic hedgehog signaling domain ShhNp. Detergent-insoluble proteolipid complexes were isolated from 293 cells expressing full-length Shh (M. K. Cooper, J. A. Porter, K. E. Young, P. A. Beachy, Science 280, 1603 (1998)), and ShhNp was purified to apparent homogeneity by immunoaffinity chromatography. […] We therefore used the detergent insolubility of cholesterol-modified ShhN and affinity chromatography to purify the processed ShhN protein (ShhNp) from a human 293 cell line engineered to express the full length mouse Shh construct. Detergent-insoluble complexes (DIGs) were isolated as described by Brown and Rose (1992), with the following modifications. Cells from a 150 mm dish were lysed and collected in 2 mL of lysis solution (10 mM NaHPO4, pH 6.5, 150 mM NaCl, 0.5 mM PMSF, 1% Triton X-100, 2 μg/ml Pepstatin A, 10 μg/ml leupeptin, 5 μg/ml aprotinin, 2 μg/ml E64) at 4° C. […] Low-density, flocculent material was collected (from original position of 18.125% step), diluted 5-fold in 10 mM NaHPO4, pH 6.5, 150 mM NaCl and harvested by centrifugation at 20,000×g for 15 min (all at 4° C.). […] Mass standards migrated as indicated. […] NIH-3T3 cells cotransfected with Gli-luc reporter and TK promoter-driven Renilla luciferase control were treated with the indicated concentrations of ShhNp for 2 days. Confluent cultures of NIH-3T3 cells were plated at 1:6 dilution to 24 or 96-well plates. On the following day, the cells were transfected with renilla luciferase (pRL-TK or pRL-SV40; Clontech) or β-galactosidase transfection control (10% w/w DNA), Gli-Luc reporter (40%) and the constructs indicated (50%) using Fugene 6 (Roche) transfection reagent (250 ng (24 well plate) or 100 ng (96 well plate) DNA/well, 3:1 ratio (v/w) of reagent to DNA). […] Firefly and Renilla luciferase and β-galactosidase activities were assayed from the cell lysates by luminometry using dual luciferase (Promega) and Galacto-Light (Tropix) kits, respectively. Luciferase activities are normalized relative to control; a representative experiment is shown. […] Error bars indicate one standard deviation. […] Cultures of Shh-LIGHT (open boxes) or SmoA1-LIGHT (filled diamonds) cells were plated to 96-well plates in a series of twofold dilutions. The NIH-3T3 cell clone Shh-LIGHT and Shh-LIGHT2 stably incorporating the Gli-luc reporter and TK-renilla vectors were established by cotransfection with a vector encoding G418 resistance (pSV-Neo), followed by selection with G418 and cell cloning. Subsequently, a clonal subline of Shh-LIGHT expressing activated Smo (SmoA1-LIGHT) was established using an expression vector that allows hygromycin selection (pcDNA3.1+ hygro; Invitrogen). […] The Shh-LIGHT cells were treated with 4 nM ShhNp, and Gli-luciferase reporter activity was assayed after 24 h. Fold induction of the reporter (% of maximum is relative to equally dense Shh-LIGHT control culture) and cell densities (% of maximum Renilla luciferase activity) were measured at the end of the experiment. Error bars indicate one standard deviation (quadruplicate wells).
Relative reporter activity is normalized to maximum. […] Error bars in A and B indicate one standard deviation.

[1] = Mus musculus, NIH3T3, concentration for 50% inhibition of Sonic hedgehog induction, Table II
[2] = concentration for 50% inhibition of Sonic hedgehog induction, Table II

Compound: CC1=C2C[C@H]3[C@@H](CC=C4C[C@@H](OC(=O)NCCNC(=O)CCc5ccccc5)CC[C@@]43C)[C@@H]2CC[C@]12O[C@@H]1C[C@H](C)CN[C@H]1[C@H]2C [Compound 8, 3O-dihydrocinnamoylethylenediaminecarbamoyl cyclopamine]
IC50 relative to cyclopamine (times higher): ~100 times
potency relative to cycloposine (3) (times weaker): 10 times

Compound: CC1=C2C(=O)[C@H]3[C@@H](CC=C4C[C@@H](OC(=O)NCCNC(=O)CCc5ccccc5)CC[C@@]43C)[C@@H]2CC[C@]12O[C@@H]1C[C@H](C)CN[C@H]1[C@H]2C [Compound 12, 3O-dihydrocinnamoylethylenediaminecarbamoyl jervine]
IC50 relative to cyclopamine (times higher): ~100 times
potency relative to cycloposine (3) (times weaker): 10 times
IC50 [1]: > 10000 nM

IC50 [1]: > 100 nM
Compound: CC1=C2C[C@H]3[C@@H](CC=C4C[C@@H](O)CC[C@@]43C)[C@@H]2CC[C@]12O[C@@H]1C[C@H](C)CN(CCNC(=O)CCc3ccccc3)[C@H]1[C@H]2C [Compound 18, N—(N′-Dihydrocinnamoyl aminoethyl)cyclopamine]

IC50 [1]: > 10 nM
improvement of inhibitory activity by oxidation of the hydroxyl group to a ketone: approximately two-fold
Compound: CC1=C2C[C@H]3[C@@H](CC=C4CC(=O)CC[C@@]43C)[C@@H]2CC[C@]12O[C@@H]1C[C@H](C)CN(CCNC(=O)CCc3ccccc3)[C@H]1[C@H]2C [Compound 19, 3-Keto, N—(N′-dihydrocinnamoylaminoethyl)cyclopamine]

Compound: CC1=C2C[C@H]3[C@@H](CC=C4CC(=O)CC[C@@]43C)[C@@H]2CC[C@]12O[C@@H]1C[C@H](C)CN(CCNC(=O)c3ccc(C(=O)c4ccccc4)cc3)[C@H]1[C@H]2C [Compound 21, 3-Keto, N—(N′-(4-benzoylbenzoyl)aminoethyl)cyclopamine]
IC50 [1]: > 10 nM
improvement of inhibitory activity by oxidation of the hydroxyl group to a ketone: approximately two-fold

Compound: CC1=C2C[C@H]3[C@@H](CC=C4C[C@@H](O)CC[C@@]43C)[C@@H]2CC[C@]12O[C@@H]1C[C@H](C)CN(CCNC(=O)CCCCCCCCCCCNC(=O)C(F)(F)F)[C@H]1[C@H]2C [Compound 29, N—(N′—(N″-Trifluoroacetyl aminododecanoyl) aminoethyl)cyclopamine]
IC50 [1]: > 100 nM
effect of N-alkyl modification on ability to block Shh signaling: do not significantly diminish
effect of addition on inhibitory activity: accentuate inhibitory activity

Compound: CCC(=O)NCCN1C[C@@H](C)C[C@H]2O[C@]3(CC[C@@H]4C(=C3C)C[C@H]3[C@H]4CC=C4C[C@@H](O)CC[C@@]43C)[C@H](C)[C@@H]21 [Compound 30, N—(N′-Propionyl aminoethyl)cyclopamine]
IC50 [1]: > 100 nM

Compound: CC1=C2C[C@H]3[C@@H](CC=C4C[C@@H](O)CC[C@@]43C)[C@@H]2CC[C@]12O[C@@H]1C[C@H](C)CN(CCNC(=O)CCCCCNC(=O)CCc3ccccc3)[C@H]1[C@H]2C [Compound 33, N—(N′—(N″-Dihydrocinnamoyl aminocaproyl)aminoethyl)cyclopamine]
effect of N-alkyl modification on ability to block Shh signaling: do not significantly diminish
effect of addition on inhibitory activity: accentuate inhibitory activity
IC50 [2]: > 10 nM

potency relative to cyclopamine: ten-fold greater
IC50 (Mus musculus, NIH3T3, concentration for 50% inhibition of Sonic hedgehog induction): 30 nM
IC50 [1]: > 10 nM
improvement of inhibitory activity by oxidation of the hydroxyl group to a ketone: approximately two-fold
Compound: CC1=C2C[C@H]3[C@@H](CC=C4CC(=O)CC[C@@]43C)[C@@H]2CC[C@]12O[C@@H]1C[C@H](C)CN(CCNC(=O)CCCCCNC(=O)CCc3ccccc3)[C@H]1[C@H]2C [Compound 34, 3-Keto, N—(N′—(N″-dihydrocinnamoylaminocaproyl)aminoethyl)cyclopamine]

Compound: CC1=C2C[C@H]3[C@@H](CC=C4C[C@@H](O)CC[C@@]43C)[C@@H]2CC[C@]12O[C@@H]1C[C@H](C)CN(CCNC(=O)CCCCCNC(=O)CCCCC3SC[C@@H]4NC(=O)N[C@H]34)[C@H]1[C@H]2C (stereo partly drawn) [Compound 40, N—(N′—(N″-Biotinoyl aminocaproyl)aminoethyl)cyclopamine]
IC50 [1]: > 100 nM
effect of N-alkyl modification on ability to block Shh signaling: do not significantly diminish

Compound: CC1=C2C[C@H]3[C@@H](CCC4=CC(=O)CC[C@@]43C)[C@@H]2CC[C@]12O[C@@H]1C[C@H](C)CN(CCNC(=O)CCCCCNC(=O)CCCCC3SC[C@@H]4NC(=O)N[C@H]34)[C@H]1[C@H]2C (stereo partly drawn) [Compound 41, 3-Enone, N—(N′—(N″-Biotinoylaminocaproyl)aminoethyl)cyclopamine]
effect of enone formation (C5-C6 olefin migrated to C4-C5) on potency: does not appear to affect compound potency
IC50 [1]: > 100 nM
improvement of inhibitory activity by oxidation of the hydroxyl group to a ketone: approximately two-fold

Compound: CCC(=O)NCCCCCC(=O)NCCN1C[C@@H](C)C[C@H]2O[C@]3(CC[C@@H]4C(=C3C)C[C@H]3[C@H]4CC=C4C[C@@H](O)CC[C@@]43C)[C@H](C)[C@@H]21 [Compound 42, N—(N′—(N″-Propionyl aminocaproyl)aminoethyl)cyclopamine]
IC50 [1]: > 100 nM

Compound: CC1=CC(C)=[N+]2C1=Cc1ccc(CCC(=O)NCCCCCC(=O)NCCN3C[C@@H](C)C[C@H]4O[C@]5(CC[C@@H]6C(=C5C)C[C@H]5[C@H]6CC=C6C[C@@H](O)CC[C@@]65C)[C@H](C)[C@@H]43)n1[B-]2(F)F [Compound 43, N—(N′—(N″-BODIPY FL aminocaproyl)aminoethyl)cyclopamine]
effect of N-alkyl modification on ability to block Shh signaling: do not significantly diminish
effect of addition on inhibitory activity: accentuate inhibitory activity
IC50 [2]: > 100 nM

Compound: CC(=O)CCC(=O)N[C@@H](Cc1ccc(C(=O)c2ccccc2)cc1)C(=O)NCCN1C[C@@H](C)C[C@H]2O[C@]3(CC[C@@H]4C(=C3C)CC3[C@H]4CC=C4C[C@@H](O)CC[C@@]43C)C(C)[C@@H]21 (stereo partly drawn) [Compound 50, N—(N′—(N″-Levulinoyl(4-benzoylphenylalaminoyl))aminoethyl)cyclopamine]
IC50 [1]: > 1000 nM
effect of N-alkyl modification on ability to block Shh signaling: significantly abrogate biological activity

Compound: CC(=O)CCC(=O)N[C@@H](Cc1ccc(C(=O)c2ccccc2)cc1)C(=O)NCCN1C[C@@H](C)C[C@H]2O[C@]3(CC[C@@H]4C(=C3C)CC3[C@H]4CC=C4CC(=O)CC[C@@]43C)[C@H](C)[C@@H]21 (stereo partly drawn) [Compound 51, 3-Keto N—(N′—(N″-Levulinoyl(4-benzoylphenylalaminoyl))aminoethyl) cyclopamine]
IC50 [1]: > 1000 nM
improvement of inhibitory activity by oxidation of the hydroxyl group to a ketone: approximately two-fold

Compound: CC1=C2C[C@H]3[C@@H](CC=C4C[C@@H](O)CC[C@@]43C)[C@@H]2CC[C@]12O[C@@H]1C[C@H](C)CN(CCNC(=O)C(CCCCNC(=O)CCCCCNC(=O)CCCC[C@@H]3SC[C@@H]4NC(=O)N[C@@H]43)NC(=O)c3ccc(C(=O)c4ccccc4)cc3)[C@H]1[C@H]2C (stereo partly drawn) [Compound 58, N—(N′—(N″,N′″-(4-Benzoylbenzoyl)(N″″-biotinoylaminocaproyl)lysine)aminoethyl)cyclopamine]
IC50 [1]: > 10000 nM

Compound: N—(N′—(N″,N′″-(4-Benzoylbenzoyl) (N″″-digoxigenin 3-O-methylcarbonyl aminocaproyl)lysine)aminoethyl)cyclopamine [Compound 57]
IC50 [2]: > 10000 nM

Compound: N—(N′—(N″-Azidoiodophenylpropionyl aminocaproyl)aminoethyl)cyclopamine [Compound 39]
effect of N-alkyl modification on ability to block Shh signaling: do not significantly diminish
effect of addition on inhibitory activity: accentuate inhibitory activity
IC50 [2]: > 100 nM
